Reference: patent US20100179185A1, “Novel Aminothienopyridinone Derivatives Processes for Preparing Them and Pharmaceutical Compositions Thereof” (UCB PHARMA, S.A., priority 2006, published 2010)

Assays:
[1] = tested on: LPS stimulated TNF release in rat; test: Rat LPS induced TNF release; format: in vivo; conditions: 1.5 h, male Lewis rats, LPS 1 mg/kg i.v., plasma TNFα at 90 minutes, compound dosed p.o.
Procedure: Male Lewis rats (180-200 g) are anaesthetized with Isofluor and injected i.v. with LPS (1 mg/kg) in a volume of 0.5 ml sterile saline. After 90 minutes blood is collected into heparin tubes for preparation of plasma samples. Plasma is stored at −80° C. prior to assay for TNFα by commercial ELISA.

[2] = tested on: LPS stimulated release of TNF from Human whole blood; test: LPS stimulation of whole blood, TNF-α release (ELISA); format: cell-based; conditions: LPS 1 μg/ml, 18 hours, 37° C., n=12
Procedure: Inhibitor stocks (10 mM) are kept as a frozen solution (−20° C.) in DMSO. Serial dilutions of inhibitors are prepared in DMSO as 200-times concentrated stocks. Inhibitors are diluted 1 in 200 into tissue culture media, prewarmed to 37° C. and transferred to plates containing PBMC. PBMC and inhibitors are incubated together for 30 mins prior to addition of LPS. Inhibitors used in whole blood assays are prepared according to a different regime. Using the same stock solution, serial dilutions of inhibitors are prepared in DMSO. Inhibitors (14) are then diluted 1 in 500 straight into whole blood. Inhibitor is incubated with whole blood for 30 mins prior to the addition of LPS.
Whole blood is taken by venous puncture using heparinised vacutainers (Becton Dickinson), and 500 μl of blood aliquoted into each well of a 96 deep well plate. After the addition of inhibitor, blood is stimulated with an optimal dose of LPS (E coli strain B5:055, Sigma, at a final concentration of 1 μg ml^−1) and incubated at 37° C. without CO2 for 18 hours. TNF-α levels are measured from cell free supernatants by sandwich ELISA (R&D Systems, # DY210).

Cc1cccc(Nc2c(C(=O)N3CCC[C@@H]3CO)sc3c2ccc(=O)n3-c2c(F)cccc2F)n1 [Compound 1]
ED50 [1]: < 10 mg/kg
IC50 [2]: 30 to 200 nM
